Reference: patent publication US6353020B1, “Fungicidal compositions containing N-acetonylbenzamides” (Dow AgroSciences LLC, priority 1998, dated 2002)
Where two headings read alike, the source gives them in different places.

Tests used:
[1] = tested on: Phytophthora capsici (ATCC 15399); test: In vitro test to control Phytophthora capsici (colony growth inhibition on potato dextrose agar); type: cell-based
[2] = tested on: Phytophthora capsici (ATCC 15399); test: as above; type: cell-based; remark: listed apart in the source
Experimental: (§1) Dilution series of Compounds A and B were prepared in dimethylsulfoxide (DMSO), and aliquots added to 25 ml of molten potato dextrose agar at 50° C. to give the appropriate concentrations shown in the table below. Immediately after adding the compound(s), the molten agar was poured into 9-cm diameter petri plates and allowed to harden. The final concentration of DMSO in all plates was 0.5%. Control plates contained DMSO but neither compound. Plates were inoculated in the center with 1 μl of a suspension of Phytophthora capsici (ATCC 15399, obtainable from the American Type Culture Collection, Rockville, Md., U.S.A) zoospores containing 5×10^5 zoospores per milliliter. Three replicate plates were used for each treatment. Fungal colony diameters were measured after growth for 7 days at 25° C., and two measurements were taken from each plate. Inhibition of growth was calculated by comparing growth in the treatments with compound A and/or B with growth in the controls. Degree of inhibition (observed) is expressed as a percentage in Table 1a. The predicted % inhibition in treatments containing both A and B was calculated using the Colby Formula.
as §1, with “B′” for “B”, “(Observed)” for “(observed)”, “1b.” for “1a.”, “Formula, which is known to those skilled in the art (R. S. Colby, Weeds 15, 20-22 (1967)).” for “Formula.”

[3] = Phytophthora capsici, ATCC15399, read-out: % Inhibition (Observed)

COCC(=O)N(c1c(C)cccc1C)C(C)C(=O)OC (racemic) [Compound B′, racemic mixture of Metalaxyl, reference compound]
% Inhibition (Observed) ([1]; Table 1b, Compound B′ 0.6 ppm alone, 7 days at 25° C.): 35.1% | % Inhibition (Observed) ([1]; Table 1b, Compound B′ 0.9 ppm alone, 7 days at 25° C.): 48.0%

COCC(=O)N(c1c(C)cccc1C)[C@H](C)C(=O)OC (single isomer, unassigned) [Compound B, R-Enantiomer of Metalaxyl, reference compound]
% Inhibition (Observed) ([1]; Table 1a, Compound B 0.5 ppm alone, 7 days at 25° C.): 56.0% | % Inhibition (Observed) ([2]; Table 1a, Compound B 0.25 ppm alone, 7 days at 25° C.): 17.9% | % Inhibition (Observed) ([2]; Table 1a, Compound B 0.75 ppm alone, 7 days at 25° C.): 57.6%

CCC(C)(NC(=O)c1cc(Cl)c(C)c(Cl)c1)C(=O)CCl (stereo not shown) [Compound A, N-[3′-(1′-chloro-3′-methyl-2′-oxopentan)]-3,5-dichloro-4-methylbenzamide]
% Inhibition (Observed) ([1]; Table 1a, Compound A 0.1 ppm alone, 7 days at 25° C.): 29.0% | % Inhibition (Observed) ([1]; Table 1b, Compound A 0.12 ppm alone): 52.3% | % Inhibition (Observed) ([1]; Table 2, Compound A 0.1 ppm alone): 30.3% | % Inhibition (Observed) ([1]; Table 2, Compound A 0.2 ppm alone): 39.3% | % Inhibition (Observed) ([1]; Table 2, Compound A 0.3 ppm alone): 51.8% | % Inhibition (Observed) ([1]; Table 3, Compound A 0.1 ppm alone): 29.0% | % Inhibition (Observed) ([1]; Table 3, Compound A 0.2 ppm alone): 38.1% | % Inhibition (Observed) ([1]; Table 3, Compound A 0.3 ppm alone): 47.4% | % Inhibition (Observed) ([1]; Table 4, Compound A 0.1 ppm alone): 34.7% | % Inhibition (Observed) ([1]; Table 4, Compound A 0.2 ppm alone): 44.5% | % Inhibition (Observed) ([1]; Table 4, Compound A 0.3 ppm alone): 49.4% | % Inhibition (Observed) ([2]; Table 1b, Compound A 0.04 ppm alone): 31.0% | % Inhibition (Observed) ([2]; Table 1b, Compound A 0.08 ppm alone): 47.2% | % Inhibition (Observed) ([2]; Table 1b, Compound A 0.16 ppm alone): 55.2%

COCC(=O)N(c1c(C)cccc1C)N1CCOC1=O [Compound C, Oxadixyl, reference compound]
inhibition at 6.25 ppm [1, 3]: 30.3% | inhibition at 12.5 ppm [1, 3]: 41.3% | inhibition at 25 ppm [1, 3]: 50.8%

Cc1cccc(C)c1N(C(=O)CCl)C1CCOC1=O (stereo not shown) [Compound D, Ofurace, reference compound]
inhibition at 12.5 ppm ([1]; Phytophthora capsici, ATCC15399, Table 3, Compound D 12.5 ppm alone, read-out: % Inhibition (Observed)): 52.1% | inhibition at 25 ppm ([1]; Phytophthora capsici, ATCC15399, Table 3, Compound D 25 ppm alone, read-out: % Inhibition (Observed)): 56%

COC(=O)C(C)N(C(=O)Cc1ccccc1)c1c(C)cccc1C (stereo not shown) [Compound E, Benalaxyl, reference compound]
inhibition at 20 ppm ([1]; Phytophthora capsici, ATCC15399, Table 4, Compound E 20 ppm alone, read-out: % Inhibition (Observed)): 46.6%
